From ChEMBL document CHEMBL1145878, “Synthesis and evaluation of isatins and thiosemicarbazone derivatives against cruzain, falcipain-2 and rhodesain” (Bioorg Med Chem Lett, 2003)

Tests used:
Falcipain 2 [1] = target: T1, Falcipain 2 (Plasmodium falciparum, UniProt Q9N6S8); experiment: Inhibitory activity against Falcipain-2; no effect
T1 sequence (Q9N6S8 whole entry): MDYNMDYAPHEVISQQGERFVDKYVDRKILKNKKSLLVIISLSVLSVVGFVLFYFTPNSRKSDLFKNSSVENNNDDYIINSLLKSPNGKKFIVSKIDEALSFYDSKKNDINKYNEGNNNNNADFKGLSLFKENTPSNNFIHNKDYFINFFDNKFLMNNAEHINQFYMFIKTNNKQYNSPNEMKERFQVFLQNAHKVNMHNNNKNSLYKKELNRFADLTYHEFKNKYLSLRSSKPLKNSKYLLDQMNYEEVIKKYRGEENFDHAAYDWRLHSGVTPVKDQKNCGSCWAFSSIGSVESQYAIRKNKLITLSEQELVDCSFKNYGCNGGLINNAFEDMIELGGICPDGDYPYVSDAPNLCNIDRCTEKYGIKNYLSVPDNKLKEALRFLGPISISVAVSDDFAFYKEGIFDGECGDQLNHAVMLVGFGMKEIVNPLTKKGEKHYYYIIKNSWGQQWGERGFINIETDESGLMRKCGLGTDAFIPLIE

Cruzipain [2] = target: T2, Cruzipain (Trypanosoma cruzi, UniProt P25779); experiment: Inhibitory activity against the Trypanosoma cruzi cysteine protease cruzain
Rhodesain = Rhodesain (Trypanosoma brucei rhodesiense, UniProt Q95PM0); experiment: Inhibitory activity against Trypanosoma brucei rhodesiense cysteine protease rhodesain
Falcipain 2 [3] = target: T1, Falcipain 2; experiment: Inhibitory activity against Falcipain-2
Falcipain 2 [4] = target: T1, Falcipain 2; experiment: Inhibitory activity against Falcipain-2; No effect
Cruzipain [5] = target: T2, Cruzipain; experiment: Inhibitory activity against Cruzain;range is 20-50

T2 sequence (P25779 whole entry): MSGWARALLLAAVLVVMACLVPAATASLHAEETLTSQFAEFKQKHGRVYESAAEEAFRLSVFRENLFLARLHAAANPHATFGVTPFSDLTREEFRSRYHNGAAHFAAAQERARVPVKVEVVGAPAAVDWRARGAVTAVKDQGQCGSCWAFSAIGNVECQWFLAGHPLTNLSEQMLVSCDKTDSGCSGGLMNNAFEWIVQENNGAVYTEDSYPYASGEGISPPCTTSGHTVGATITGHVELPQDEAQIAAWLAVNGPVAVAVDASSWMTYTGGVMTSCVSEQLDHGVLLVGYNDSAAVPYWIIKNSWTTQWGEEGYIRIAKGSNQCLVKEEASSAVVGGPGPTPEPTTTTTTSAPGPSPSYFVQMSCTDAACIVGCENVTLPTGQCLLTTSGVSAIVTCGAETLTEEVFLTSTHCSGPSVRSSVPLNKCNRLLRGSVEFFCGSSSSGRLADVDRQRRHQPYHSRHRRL
Rhodesain, sequence (Q95PM0 whole entry): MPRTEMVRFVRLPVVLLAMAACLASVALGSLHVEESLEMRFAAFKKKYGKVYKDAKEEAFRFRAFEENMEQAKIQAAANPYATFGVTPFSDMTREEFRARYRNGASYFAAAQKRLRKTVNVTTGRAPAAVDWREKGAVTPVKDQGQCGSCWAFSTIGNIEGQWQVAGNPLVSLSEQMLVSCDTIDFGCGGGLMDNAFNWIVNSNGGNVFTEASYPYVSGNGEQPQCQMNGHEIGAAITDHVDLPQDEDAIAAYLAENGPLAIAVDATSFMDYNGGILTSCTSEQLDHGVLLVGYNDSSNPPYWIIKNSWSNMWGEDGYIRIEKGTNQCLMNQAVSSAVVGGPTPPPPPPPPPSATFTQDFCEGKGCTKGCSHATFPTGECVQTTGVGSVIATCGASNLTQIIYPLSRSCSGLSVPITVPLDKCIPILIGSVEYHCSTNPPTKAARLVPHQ

Compound	IC50 (Falcipain 2 [1])	IC50 (Cruzipain [2]) [µM]	IC50 (Rhodesain) [µM]	IC50 (Falcipain 2 [3]) [µM]	IC50 (Falcipain 2 [4])	IC50 (Cruzipain [5]) [µM]
O=C1C(=O)N(Cc2ccccc2)c2ccccc21	Not Active	> 10	> 10			
O=C1Nc2ccc([N+](=O)[O-])cc2C1=O [5-NITROISATIN]		> 10	> 10	42.6		
Cc1ccc2c(c1)C(=O)C(=O)N2		> 10			Not Active	
CN1C(=O)C(=O)c2ccccc21	Not Active	> 10				
COc1cccc(CN2C(=O)C(=O)c3cc(C)ccc32)c1		2	> 10	21.9		
O=C1Nc2ccc(F)cc2C1=O [5-FLUOROISATIN]	Not Active	> 10				
Cc1cc(C)c2c(c1)C(=O)C(=O)N2	Not Active	> 10				
O=C1C(=O)N(Cc2ccc(Cl)cc2)c2ccc(Cl)cc21		6	> 10	31.2		
O=C1Nc2ccc(OC(F)(F)F)cc2C1=O	Not Active	> 10	> 10			
O=C1C(=O)N(C(=O)OCc2ccccc2)c2ccccc21	Not Active		30			
COc1cccc(CN2C(=O)C(=O)c3cc(Cl)ccc32)c1		> 10	> 10	34.6		
Cc1ccc2c(c1)C(=O)C(=O)N2Cc1ccccc1-c1ccccc1		2.8	> 10	9.2		
Cc1ccc2c(c1)C(=O)C(=O)N2Cc1ccc(Cl)cc1	Not Active	> 10	> 10			
O=C1C(=O)N(C(=O)OCc2ccccc2)c2ccc(F)cc21		> 10	> 10			
O=C1Nc2ccc(I)cc2C1=O [5-IODOISATIN]	Not Active	> 10				
O=C1C(=O)N(C(=O)c2ccccc2)c2ccccc21	Not Active		100			
NC(=S)/N=N/c1c(O)[nH]c2ccccc12		8	3.5	38.8		

Compound	IC50 (Falcipain 2 [1])	IC50 (Cruzipain [2]) [µM]	IC50 (Rhodesain) [µM]	IC50 (Falcipain 2 [3]) [µM]	IC50 (Falcipain 2 [4])	IC50 (Cruzipain [5]) [µM]
O=C1C(=O)N(S(=O)(=O)c2ccccc2)c2ccccc21	Not Active		15			
O=C1Nc2ccccc2C1=O [ISATIN]		> 10	> 10		Not Active	
NC(=S)/N=N/c1c(O)[nH]c2ccc(I)cc12		9	1	28.7		
O=C1C(=O)N(Cc2ccccc2)c2ccc(Cl)cc21		90	> 10	46.9		
O=C1C(=O)N(C(=O)OCc2ccccc2)c2ccc(Cl)cc21	Not Active	80	> 10			
O=C1C(=O)N(Cc2ccccc2)c2ccc(I)cc21		90	> 10			
O=C1Nc2ccc(Br)cc2C1=O	Not Active	> 10				
NC(=S)/N=N/c1c(O)[nH]c2ccc(F)cc12		30	15	38.6		
Cc1cc(Cl)cc2c(/N=N/C(=N)S)c(O)[nH]c12		10.5	3	9.4		
Cc1ccc2[nH]c(O)c(/N=N/C(=N)S)c2c1			15	43.9		50
Cc1cc(C)c2[nH]c(O)c(/N=N/C(=N)S)c2c1		16	15	13.2		
NC(=S)/N=N/c1c(O)[nH]c2ccc(Cl)cc12		21	6	32.8		
O=C1C(=O)N(c2ccccc2)c2ccccc21 [PHENYL ISATIN]	Not Active	> 10				
O=C1Nc2ccc(Cl)cc2C1=O	Not Active	> 10				
NC(=S)/N=N/c1c(O)[nH]c2ccc(Br)cc12		20	7	29.6		
NC(=S)/N=N/c1c(O)[nH]c2ccc([N+](=O)[O-])cc12		30	17	4.4		
Cc1ccc(C)c(CN2C(=O)C(=O)c3cc(C)ccc32)c1	Not Active	80	> 10			
